Tests used:
[1] = Tolerability: treatment-emergent adverse events and MTD, SNX-5422 dose escalation plus everolimus in NET patients; type: in vivo; conditions: in combination with everolimus, once every other day for 21 days of 28-day cycle
Experimental: (§1) Starting on Day 1, SNX-5422 was dosed once every other day for 21 days (11 doses), followed by a 7-day drug free period. SNX-5422 was dosed each morning starting at 50 mg/m^2 with standard 3+3 dose escalation. The actual dose administered was based on body surface area, calculated using body weight measured at the start of each cycle and height at Screening. The calculated dose was then rounded to the nearest mg on dosing chart. Everolimus was dosed at 10 mg once daily in the evening (at least 8 hours after SNX-5422 dosing) for 28 days, with dose de-escalation allowed based on EVR toxicity. Eligible patients were to have unresectable gastro-entero-pancreatic or pulmonary NETs and less than 5 prior lines of anti-cancer treatment.
Results: Seventeen patients (10 male, 7 female; median age 59 years) with NETs were enrolled in the study. The maximum tolerated dose (MTD) of SNX-5422 was determined to be 75 mg/m^2 in combination with everolimus.
Tolerability: Most frequent (i.e., occurring in 6 or more patients overall) Treatment-Emergent Adverse Events (TEAEs) are provided in Table 1. All patients reported at least one TEAE. Diarrhea was the most commonly reported TEAE, occurring in 80% of patients overall. In 13 patients (65%), the event was considered related to the combination of SNX-5422 and everolimus. […]

[2] = tested on: unresectable gastro-entero-pancreatic or pulmonary NETs; assay: Tumor response by RECIST 1.1 in NET patients treated with SNX-5422 plus everolimus; type: in vivo, human
Experimental: as §1
Tumor response was assessed at the end of every 2 cycles±2 weeks, using RECIST 1.1 criteria (Eisenhauer et al. European Journal of Cancer 45:228-247 (2009)). Partial Response (PR) was defined as at least a 30% decrease in the sum of diameters of target lesions, taking as reference the baseline sum diameters. Progressive Disease (PD) was defined as at least a 20% increase in the sum of diameters of target lesions, taking as reference the smallest sum on study. Stable disease is noted where there is no sufficient shrinkage to qualify for PR or no sufficient increase to qualify for PD.

[3] = tested on: advanced, non-functional neuroendocrine tumours of the lung or gastrointestinal tract; conditions: everolimus only, without SNX-5422; patients with NETs; RADIANT-4; cited from earlier work
[4] = of 17 NET patients evaluable, SNX-5422 plus everolimus, RECIST 1.1
[5] = patients previously treated with 2 or less prior lines of treatment (FIG. 2), SNX-5422 plus everolimus
[6] = six patients, GI tract/lung/unknown carcinoid, ≤2 prior lines and Ki67<20% (FIG. 4), SNX-5422 plus everolimus

Row | Structure (SMILES) | maximum tolerated dose (MTD) [1] [mg/m^2] | subjects receiving ongoing treatment for over 2 years (i.e., ≥30 cycles) ([2]; combination of SNX-5422 plus everolimus, NET patients) [subjects] | partial response as best response, % of patients [2, 4] [%] | partial response as best response, number of patients [2, 4] [patients] | progressive disease as best response, % of patients [2, 4] [%] | progressive disease as best response, number of patients [2, 4] [patients] | stable disease as best response, % of patients [2, 4] [%] | stable disease as best response, number of patients [2, 4] [patients] | tumor reduction ([2]; one patient with GI NET, 30 treatment cycles, SNX-5422 plus everolimus) [%] | tumor reduction ([2]; one patient with lung carcinoid, 10 treatment cycles, SNX-5422 plus everolimus) [%] | tumor reduction ([2]; one patient with unknown carcinoid, 35 treatment cycles, SNX-5422 plus everolimus) [%] | reduction in target lesion size ([2]; one patient, SNX-5422 plus everolimus) [%] | tumor measurement, second diameter (CT scan left iliac adenopathy) ([2]; patient with pulmonary carcinoid NET, after 4 cycles of treatment, baseline 4.25 cm, SNX-5422 plus everolimus) [cm] | tumor measurement, first diameter (CT scan left iliac adenopathy) ([2]; patient with pulmonary carcinoid NET, after 4 cycles of treatment, baseline 6.51 cm, SNX-5422 plus everolimus) [cm] | partial response as best response, number of patients [2, 5] [patients] | progressive disease as best response, number of patients [2, 5] [patients] | stable disease as best response, number of patients [2, 5] [patients] | overall response rate [2, 6] [%] | partial response, number of patients [2, 6] | partial response rate, % of patients [3]
1 | CC1(C)CC(=O)c2c(C(F)(F)F)nn(-c3ccc(C(N)=O)c(N[C@H]4CC[C@H](OC(=O)CN)CC4)c3)c2C1 [SNX-5422, trans-4-({2-(aminocarbonyl)-5-[6,6-dimethyl-4-oxo-3-(trifluoromethyl)-4,5,6,7-tetrahydro-1H-indazol-1-yl]phenyl}amino)cyclohexyl glycinate] | 75 | 2 | 18 | 3 | 18 | 3 | 64 | 11 | 31 | 51 | 36 | 51 | 2.42 | 3.75 | 3 | 1 | 7 | 50 | three | –
2 | CO[C@H]1C[C@@H]2CC[C@@H](C)[C@@](O)(O2)C(=O)C(=O)N2CCCC[C@H]2C(=O)O[C@H]([C@H](C)C[C@@H]2CC[C@@H](OCCO)[C@H](OC)C2)CC(=O)[C@H](C)/C=C(\C)[C@@H](O)[C@@H](OC)C(=O)[C@H](C)C[C@H](C)/C=C/C=C/C=C/1C [everolimus, (1R,9S,12S,15R,16E,18R,19R,21R,23S,24E,26E,28E,30S,32S,35R)-1,18-dihydroxy-12-{(1R)-2-[(1 S,3R,4R)-4-(2-hydroxyethoxy)-3-methoxycyclohexyl]-1-methylethyl}-19,30-dimethoxy-15,17,21,23,29,35-hexamethyl-11,36-dioxa-4-aza-tricyclo[30.3.1.04,9]hexatriaconta-16,24,26,28-tetraene-2,3,10,14,20-pentaone] | – | – | – | – | – | – | – | – | – | – | – | – | – | – | – | – | – | – | – | about 2%

From US20190269656A1, “Combination Therapies Using Indazolylbenzamide Derivatives for the Treatment of Cancer” (ESANEX, INC., priority 2016, published 2019)
